pIC50: −log10 of the molar value. “And” between values parts separate entries of the source, which are not always exact repeats. Equal values may be shown once. Results filed as inconclusive are left out.
Molecular target: Virion infectivity factor (Human immunodeficiency virus type 1 group M subtype B (isolate BH10)) + Virion infectivity factor (Human immunodeficiency virus type 1 group M subtype B (isolate BRU/LAI)) + Virion infectivity factor (Human immunodeficiency virus type 1 group M subtype B (isolate PCV12)) + Virion infectivity factor (Human immunodeficiency virus type 1 group M subtype B (isolate HXB2)) + DNA dC->dU-editing enzyme APOBEC-3G (Homo sapiens) (UniProt P69720+P69721+P69722+P69723+Q9HC16)
Test: HIV-1 Vif–A3G interaction blockers – biochemical, TR-FRET, GST-Vif 1-94, biotin-A3G peptide, dose response retest, primary screen (AID 1117319);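 further: Vif residues 1-94 fused to GST binding biotinylated APOBEC3G peptide 110-148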
Conditions: TR-FRET GST-Vif / biotin-A3G peptide binding

## NC(=O)c1ccc(N2CCN(c3ccc(O)cc3)CC2)c([N+](=O)[O-])c1
  pIC50: 5.15

## COc1ccc(-c2nc3oc4cc(OC)ccc4c(=O)c3c(=O)n2Cc2ccco2)cc1
  pIC50: 4.01

## COc1cc(NC(=O)c2noc3c2CCC3)c(OC)cc1Cl
  pIC50: 4.80

## Cc1cccc(/C=C(\C(=O)O)c2ccc(S(=O)(=O)N3CCCC3)s2)c1
  pIC50: 4.66

## COC1=C(Br)C(=O)c2nc(C)ccc2C1=O
  pIC50: 4.87

## COc1cc2[nH]c(Cl)c([N+](=O)[O-])c2cc1OC
  pIC50: 5.42

## COc1cccc(=O)c2c(C)n(-c3ccc(C(=O)O)cc3)c(C)c12
  pIC50: 5.49

## Cc1cc(SCC(=O)N/N=C/c2ccc(O)c(O)c2O)c(C)cc1Br
  pIC50: 4.87

## c1ccc2c(c1)NCC1CCCN21 (stereo unspecified)
  pIC50: 4.42

## Cn1c(N)c(C(=O)COC(=O)C2CCCCC2)c(=O)n(C)c1=O
  pIC50: 4.03

## CN(C)c1ccc(N2C(=O)CC(Nc3ccc(N4CCOCC4)cc3)C2=O)cc1 (stereo unspecified)
  pIC50: 5.91

## N#Cc1ccccc1CN1C(=O)S/C(=C/c2cccn2-c2ccc(C(=O)O)cc2)C1=O
  pIC50: 4.70

## O=C1NC(=S)SC1=C1CCCC1
  pIC50: 5.21

## CCOc1ccc(C(=O)NC(=S)Nc2ccc(N3CCC(C)CC3)cc2)cc1[N+](=O)[O-]
  pIC50: 4.26

## COc1ccc(NC(=O)N2c3ccc(OC)cc3C(C)=CC2(C)C)cc1
  pIC50: 5.49

## CC(/C=C1\SC(=S)N(CCCC(=O)Nc2ccc(C(=O)O)c(O)c2)C1=O)=C\c1ccccc1
  pIC50: 5.29

## O=c1oc2c3c4c(cc2s1)CCCN4CCC3
  pIC50: 5.02

## COc1ccc(CCNC(=O)c2ccc3nc(-c4ccco4)c(-c4ccco4)nc3c2)cc1OC
  pIC50: 6.35

## O=C(/C=C/c1ccco1)NC(=S)Nc1ccc(C(=O)O)cc1
  pIC50: 4.79

## O=S(=O)(c1ccc2nc(-c3ccco3)c(-c3ccco3)nc2c1)N1CCOCC1
  pIC50: 5.19 and 5.42

## CN(C)c1cc(Cl)c2nonc2c1N
  pIC50: 4.92

## Cc1cc(C)c([N+](=O)[O-])cc1-c1ccc(/C=N/c2c(-c3ccco3)nc3ccccn23)o1
  pIC50: 4.37

## CCC(C)C(NC(=O)[C@@H](NC(=O)c1ccccc1F)C(C)C)C(=O)OC (stereo partly specified)
  pIC50: 5.23

## CCCNC1=C(C)C(=O)C2=C(C1=O)C(COC(N)=O)[C@]1(OC)C3NC3CN21 (stereo partly specified)
  pIC50: 5.09

## CCN(CC)S(=O)(=O)c1ccc(/C=C/C(=O)Nc2ccc(N3CCOCC3)cc2)cc1
  pIC50: 4.25

## N#Cc1ccc(N2CCN(C(=O)c3cccc(F)c3)CC2)c(F)c1
  pIC50: 4.04

## O=C(NNC(=O)c1ccccc1O)c1ccc(-c2ccc([N+](=O)[O-])cc2)o1
  pIC50: 4.49

## C=CCn1c(SCC(=O)c2cc(C)n(C(C)COC)c2C)nc2sc(C)c(C)c2c1=O (stereo unspecified)
  pIC50: 4.57

## CCOC(=O)C1=C(C)N=c2s/c(=C/c3ccco3)c(=O)n2C1c1cccc(OC)c1 (stereo unspecified)
  pIC50: 4.48

## O=C(COC(=O)/C=C/c1ccco1)Nc1ncc(C(F)(F)F)cc1Cl
  pIC50: 4.89

## O=[n+]1c2c(n([O-])c3cc(Cl)ccc31)CCCC2
  pIC50: 5.01

## CNc1ccc(Br)cc(C(=O)/C=C/c2ccc(Cl)cc2Cl)c1=O
  pIC50: 5.03

## CCOc1ccc(-c2nnn(CC(=O)c3ccc4c(c3)OCCO4)n2)cc1OCC
  pIC50: 4.54

## CC[n+]1ccc(C)c2cc(P(=O)(c3ccccc3)c3ccccc3)ccc21
  pIC50: 5.41

## O=C(COc1ccc(S(=O)(=O)N2CCCC2)cc1)NCCC1=CCCCC1
  pIC50: 4.12

## O=C(c1ccc2nc(-c3ccco3)c(-c3ccco3)nc2c1)N1CCN(c2ncccn2)CC1
  pIC50: 5.99

## O=C(/C=C/c1ccco1)c1cccnc1
  pIC50: 4.85

## COc1ccc(/C=N/NC(=O)c2cc(O)c(O)c(O)c2)cc1Cn1cc([N+](=O)[O-])cn1
  pIC50: 5.97

## Cn1cccc1/C=C1\C(=O)NC(=O)N(Cc2ccco2)C1=O
  pIC50: 5.02

## CS(=O)(=O)c1ccc2c(c1)SC1=NC(=O)/C(=C/c3ccco3)C(=N)N12
  pIC50: 5.20

## CC(=O)N1CCN(c2ccc(NCc3ccc4c(c3)OCO4)cc2)CC1
  pIC50: 5.42

## O=C(CCCCCN1C(=O)CCC1=O)Nc1ccc(Cl)c(C(F)(F)F)c1
  pIC50: 5.41

## NC(=O)c1cc(N)ccc1N1CCCC1
  pIC50: 5.95

## N#CC(C(=O)NCc1ccco1)c1nc2ccccc2nc1N1CCOCC1 (stereo unspecified)
  pIC50: 4.29

## CN(C(=S)Nc1cccnc1)c1ccc(O)cc1
  pIC50: 5.73

## C=CCn1c(SCC(=O)NCCCC)nc2scc(-c3ccco3)c2c1=O
  pIC50: 4.69

## CC(=O)c1sc(C(=O)O)c(-c2ccco2)c1-c1ccco1
  pIC50: 5.01

## Cc1cc2c(c(=O)o1)C(c1ccc([N+](=O)[O-])o1)C(C#N)=C(N)O2 (stereo unspecified)
  pIC50: 5.60

## O=C1NC(=S)N(c2ccccc2)C(=O)/C1=C/c1ccco1
  pIC50: 5.03

## C=C(C)C(=O)Nc1cccc(C2=NOC3(C2)C[C@@H](C(N)=O)N(C(=O)/C=C/CC)C3)c1 (stereo partly specified)
  pIC50: 5.48

## CCOC(=O)c1c(C)oc2c1c(C=NCc1ccccn1)c(O)c1ccccc12
  pIC50: 5.73

## CCOC(=O)C(=O)NCc1ccc(/C=C2/N=C(C)C(C(=O)OCC)=C2O)o1
  pIC50: 5.21

## COc1ccc(NC(=O)c2ccccc2NC(=O)CSc2ccc(Cl)cc2)cc1
  pIC50: 4.24

## CC1=Nc2cccc3cccc(c23)N1
  pIC50: 6.28

## CCCSC1=N/C(=C\C=C\c2ccco2)C(=O)S1
  pIC50: 5.42

## COC(Cc1nnc(SC)n1-c1ccc(Cl)cc1)OC
  pIC50: 4.37

## Nc1cccc2c(O)cc(S(=O)(=O)O)cc12
  pIC50: 5.70

## Oc1ccc(C[C@H]2NCCc3cc(O)c(O)cc32)cc1O
  pIC50: 5.01

## Cc1cc(O)c(-c2cc(O)c(C)cc2O)cc1O
  pIC50: 5.07

## COc1ccc(N2CCN(C(=O)COc3ccccc3)CC2)cc1
  pIC50: 4.11

## CCN(CC(=O)Nc1c(C(=O)OC)[nH]c2ccccc12)c1ccc2c(c1)OCO2
  pIC50: 5.23

## O=S(=O)(O)c1cc(O)c2ccc(Nc3ccccc3)cc2c1
  pIC50: 5.86

## NC(=O)COC(=O)c1ccc(Oc2ccccc2)cc1
  pIC50: 4.01

## Cc1cccc(C)c1NC(=O)COC(=O)c1cc(-c2cccnc2)nc2ccccc12
  pIC50: 4.38

## CC1=C(C(=O)Nc2ccccc2)C(c2ccc(C)o2)n2c(s/c(=C\c3ccco3)c2=O)=N1 (stereo unspecified)
  pIC50: 5.27

## COc1ccc(NC(=O)CN(C)C(=O)c2cc(-c3ccco3)nc3ccccc23)cc1
  pIC50: 5.31

## CCOC(=O)C1CCCN(C(=O)c2cc(-c3ccco3)nc3ccccc23)C1 (stereo unspecified)
  pIC50: 5.58

## CC1=CC(C)(C)Nc2ccc(OC(=O)c3cccnc3)cc21
  pIC50: 4.52

## COc1cccc(N2C(=O)NC(=O)/C(=C/c3ccc([N+](=O)[O-])s3)C2=O)c1
  pIC50: 5.14

## COc1ccc2ccccc2c1C1CC(=O)N2CN(Cc3ccco3)CSC2=C1C#N (stereo unspecified)
  pIC50: 4.27

## CCOC(=O)C1CCN(C(c2cccs2)c2sc3nc(C)nn3c2O)CC1 (stereo unspecified)
  pIC50: 4.25

## CC1=NN(c2cccc(C(=O)O)c2)C(=O)/C1=C\C=C\c1ccco1
  pIC50: 5.54

## O=C(CCN1C(=O)/C(=C/c2cccs2)SC1=S)NC1=NCCS1
  pIC50: 4.91

## Cc1cc(C(=O)O)ccc1-n1c(C)ccc1C
  pIC50: 5.29

## CC(N=Cc1cccc(O)c1O)c1ccccc1 (stereo unspecified)
  pIC50: 5.58

## COc1ccc(NC(=O)Nc2cccs2)cc1OC
  pIC50: 4.46

## Cc1cc(C(=O)CSc2nc3ccccc3c(=O)[nH]2)c(C)n1C
  pIC50: 4.50

## O=C(Cc1ncn[nH]1)NCCc1ccccc1
  pIC50: 4.01

## O=C1CC(c2ccco2)CC(O)=C1C=Nc1cc(Cl)cc(Cl)c1 (stereo unspecified)
  pIC50: 5.39

## Cc1[nH]c2ccccc2c1C1=CC(=O)C=CC1=O
  pIC50: 5.37

## Cc1cc(-c2cc(-c3ccc(Cl)cc3)nc(N)c2C#N)co1
  pIC50: 4.91

## COCCNC(=O)COC(=O)c1[nH]c(C)c(C(C)=O)c1C
  pIC50: 5.01

## CC1(C)CCCN(C(=O)c2coc(=O)c(Br)c2)C1
  pIC50: 5.45

## O=C(Cc1cc(=O)[nH][nH]1)N/N=C/C=C/c1ccccc1
  pIC50: 4.58

## O=C(NC1=CC(=O)c2ccccc2C1=O)c1ccccc1
  pIC50: 4.68

## c1coc(-c2nc3nc4ccccc4n3nc2-c2ccco2)c1
  pIC50: 4.91

## CN1C(=O)/C(=C/C=C/c2ccco2)C(=O)NC1=S
  pIC50: 4.87

## CCCC(=O)N(CCc1ccc(OC)cc1)Cc1nc2ccccc2c(=O)[nH]1
  pIC50: 4.84

## O=C(N/N=C/C=C/c1ccco1)c1ccncc1
  pIC50: 5.63

## CCOC(=O)/C=C1\SCC(=O)N1CC(=O)NC(C)c1ccc(F)cc1 (stereo unspecified)
  pIC50: 4.54

## O=C1/C(=C/C=C/c2ccco2)SC(=S)N1c1ccc(O)cc1
  pIC50: 5.59

## CCCn1cnc2cc(NCc3ccccn3)ccc21
  pIC50: 4.54

## CC(/C=N/n1c(-c2ccncc2)n[nH]c1=S)=C\c1ccco1
  pIC50: 5.29

## CC1(OC(=O)CCc2ccccc2)C(=O)C=C2C=C(c3ccsc3)OC=C2C1=O (stereo unspecified)
  pIC50: 5.33

## CC(=O)Nc1ccc(N/C=C/C(=O)C(C)(C)C)cc1
  pIC50: 4.39

## O=C(CSc1nc2cc([N+](=O)[O-])ccc2n1-c1ccccc1)NCc1ccc2c(c1)OCO2
  pIC50: 4.33

## C=CCSc1nnc(NC(=O)CSc2nnc(C)s2)s1
  pIC50: 4.04

## Cc1cccc(N/N=C/c2ccc(O)c(O)c2O)c1
  pIC50: 5.02

## COc1ccc2c(c1)C(=O)c1ccccc1CO2
  pIC50: 4.28

## CCCn1nc(C(=O)Nc2cc(C(=O)OC)ccc2C)c2ccccc2c1=O
  pIC50: 4.06

## CCOC(=O)C1=C(N)n2c(s/c(=C/c3ccco3)c2=O)=C(C(=O)OC)C1c1ccco1 (stereo unspecified)
  pIC50: 5.66

## Oc1ccc(/C=N/N=C/c2ccc(O)c(O)c2)cc1O
  pIC50: 5.32

## O=C(NCCCO)c1ccc2nc(-c3ccco3)c(-c3ccco3)nc2c1
  pIC50: 6.14

## Cc1cc(C(=O)COC(=O)c2cc(O)c3ccccc3c2O)c(C)n1CC1CCCO1 (stereo unspecified)
  pIC50: 5.16

## CC(C)c1ccc(/C=C/C(=O)N2CCc3ccccc3C2)cc1
  pIC50: 4.75

## O=C(CN1C(=O)NC2(CCCCCCC2)C1=O)NCc1cccs1
  pIC50: 4.96

## Cc1c(C(=O)O)cccc1-n1c(C)cc(/C=N/Nc2ccc([N+](=O)[O-])cn2)c1C
  pIC50: 4.90

## O=[N+]([O-])c1ccc(-c2ccc(/C=N/c3c(-c4ccco4)nc4ccccn34)o2)cc1
  pIC50: 6.59

## O=C(O)C(Cc1ccccc1)N1C(=O)/C(=C/C=C/c2ccco2)SC1=S (stereo unspecified)
  pIC50: 5.68

## O=c1cc2oc3cc(O)c(O)cc3c(-c3ccccc3O)c-2cc1O
  pIC50: 6.08

## O=C(CC1C(=O)NCCN1Cc1ccc(F)cc1)NCCN1CCCc2ccccc21 (stereo unspecified)
  pIC50: 4.01
